Data: ChEMBL document CHEMBL5107996, “Design and evaluation of achiral, non-atropisomeric 4-(aminomethyl)phthalazin-1(2H)-one derivatives as novel PRMT5/MTA inhibitors” (Bioorg Med Chem, 2022)

Legend:
[1] = Metabolic stability in human hepatocytes assessed as intrinsic clearance; assay type: ADME, cell-based, Hepatocyte; details: read-out: CLH
HCT-116 [2] = assay: Antiproliferative activity against human HCT-116 cells expressing wild type MTAP assessed as cell viability after 10 days by CellTiter-Glo assay; assay type: functional, cell-based; details: HCT-116, 240 h
[3] = target: T1, Protein arginine N-methyltransferase 5 (Homo sapiens, UniProt O14744); assay: Inhibition of PRMT5 methyltransferase activity in MTAP knockout human HCT-116 cells assessed as inhibition of PRMT5-mediated SDMA modification level incubated for 96 hrs by In-cell Western analysis; assay type: cell-based
T1 sequence (O14744 whole entry): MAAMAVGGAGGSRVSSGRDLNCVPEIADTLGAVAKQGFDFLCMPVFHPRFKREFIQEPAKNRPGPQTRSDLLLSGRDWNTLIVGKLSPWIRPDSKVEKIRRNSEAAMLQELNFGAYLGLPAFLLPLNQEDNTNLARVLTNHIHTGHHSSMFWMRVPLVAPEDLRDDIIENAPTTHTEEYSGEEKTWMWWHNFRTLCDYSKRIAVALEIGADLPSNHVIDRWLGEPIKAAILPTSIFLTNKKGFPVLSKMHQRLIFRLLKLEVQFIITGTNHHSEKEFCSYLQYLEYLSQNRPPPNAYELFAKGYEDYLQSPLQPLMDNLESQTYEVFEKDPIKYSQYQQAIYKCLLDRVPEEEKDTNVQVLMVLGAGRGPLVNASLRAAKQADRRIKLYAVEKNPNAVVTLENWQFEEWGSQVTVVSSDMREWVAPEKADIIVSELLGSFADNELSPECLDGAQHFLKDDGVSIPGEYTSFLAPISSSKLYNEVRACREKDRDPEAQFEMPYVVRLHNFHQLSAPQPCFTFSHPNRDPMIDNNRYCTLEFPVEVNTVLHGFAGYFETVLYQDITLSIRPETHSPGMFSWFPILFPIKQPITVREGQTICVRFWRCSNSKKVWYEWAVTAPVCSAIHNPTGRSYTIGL

HCT-116 [4] = assay: Antiproliferative activity against MTAP knockout human HCT-116 cells assessed as cell viability after 10 days by CellTiter-Glo assay; assay type: functional, cell-based; details: HCT-116, 240 h
[5] = Ratio IC50 for antiproliferative activity against human HCT-116 cells expressing wild type MTAP to IC50 for antiproliferative activity against MTAP knockout human HCT-116 cells
[6] = target: T1, Protein arginine N-methyltransferase 5; assay: Inhibition of PRMT5 methyltransferase activity in human HCT-116 cells expressing wild type MTAP assessed as inhibition of PRMT5-mediated SDMA modification level incubated for 96 hrs by In-cell Western analysis; assay type: cell-based
[7] = target: T1, Protein arginine N-methyltransferase 5; assay: Inhibition of PRMT5 (unknown origin) using H2A and 3H-SAM as substrates preincubated for 20 mins followed by substrate addition incubated for 60 mins in presence of MTA by radiometric HotSpot assay
HepG2 = assay: Antiproliferative activity against human HepG2 cells assessed as inhibition of cell viability measured after 120 hrs CellTiter-Glo assay; assay type: functional, cell-based; details: HepG2, 120 h

CLint scaled [1] [mL/min/kg] | IC50 (HCT-116 [2]) [nM] | IC50 [3] [nM] | IC50 (HCT-116 [4]) [nM] | IC50 [6] [nM] | IC50 [7] [nM] | IC50 (HepG2) [nM] | SMILES | Ratio IC50 [5]
< 18 | 4350 | 262 | 188 | > 1000 |  |  | Cn1ncc(-c2cc(O)c3c(=O)[nH]nc(CN)c3c2)c1-c1sc2ccccc2c1C#N | 23
27 | 1470 | 17 | 30 | > 1000 |  |  | Cc1cc(-c2cnn(C)c2-c2sc3ccccc3c2C#N)cc2c(CN)n[nH]c(=O)c12 | 49
 |  |  | 315 |  | 99 |  | Cn1ncc(-c2ccc3c(=O)[nH]nc(CN)c3c2)c1-c1sc2ncccc2c1C#N | 
43 | 2050 | 390 | 711 | > 1000 |  |  | Cn1ncc(-c2cc([C@@H]3CCCO3)c3c(=O)[nH]nc(CN)c3c2)c1-c1sc2ccccc2c1C#N | 3
 |  |  | 2940 |  | 768 |  | Cn1ncc(-c2ccc3c(=O)[nH]nc(CN)c3c2)c1-c1sc2ccncc2c1C#N | 
 |  |  | 1540 |  | 650 |  | Cn1ncc(-c2ccc3c(=O)[nH]nc(CN)c3c2)c1-c1sc2cccnc2c1C#N | 
44 | 2030 | 25 | 37 | 759 |  |  | Cn1ncc(-c2cc(C(F)F)c3c(=O)[nH]nc(CN)c3c2)c1-c1sc2ccccc2c1C#N | 55
66 | 51 | 5 | 19 | 267 |  | 490 | COCc1cc(-c2cnn(C)c2-c2sc3ccccc3c2C#N)cc2c(CN)n[nH]c(=O)c12 | 3
 |  |  | 3510 |  | 1350 |  | Cn1ncc(-c2cnc3c(=O)[nH]nc(CN)c3c2)c1-c1sc2ccccc2c1C#N | 
 |  |  | 250 |  |  |  | Cn1ncc(-c2ccc3c(=O)[nH]nc(CN)c3n2)c1-c1sc2ccccc2c1C#N | 
< 18 |  |  |  |  |  | 6600 | Cn1ncc(-c2ccc3c(=O)[nH]nc(CN)c3c2)c1-c1c(F)c(Cl)cc(OC2CC2)c1C#N | 
 |  |  | 1470 |  | 223 |  | Cn1ncc(-c2ccc3c(=O)[nH]nc(CN)c3c2)c1-c1sc2cnccc2c1C#N | 
< 18 | 637 | 112 | 150 | 618 |  |  | CCOc1cc(-c2cnn(C)c2-c2sc3ccccc3c2C#N)cc2c(CN)n[nH]c(=O)c12 | 4
71 | 734 | 17 | 52 | > 1000 |  |  | Cn1ncc(-c2cc(Cl)c3c(=O)[nH]nc(CN)c3c2)c1-c1sc2ccccc2c1C#N | 14
39 | 29 | 4 | 16 | 174 |  | 290 | Cn1ncc(-c2cc([C@H]3CCCO3)c3c(=O)[nH]nc(CN)c3c2)c1-c1sc2ccccc2c1C#N | 2

SMILES | CLint scaled [1] [mL/min/kg] | IC50 (HCT-116 [2]) [nM] | IC50 [3] [nM] | IC50 (HCT-116 [4]) [nM] | IC50 [6] [nM] | IC50 [7] [nM] | IC50 (HepG2) [nM] | Ratio IC50 [5]
Cn1ncc(-c2ccc3c(=O)[nH]nc(CN)c3c2)c1-c1sc2ccccc2c1C#N |  |  |  |  | > 1000 | 37 | 18300 | 100
